# Patent publication US20150274735A1, “USE OF A TETRASUBSTITUTED PYRAZOLO[4, 3-D]PYRIMIDINE COMPOUND FOR TREATING DIABETIC NEPHROPATHY” (priority 2012, published 2015)
# “Also recorded” adds a separate entry of the source.
# Experiments:
# [1] = Single-dose toxicity/toxicokinetic study of polymorph forms in rats; type: in vivo; conditions: equivalent doses 100 and 300 mg/kg
# [2] = Single-dose toxicity/toxicokinetic study of polymorph forms in dogs; type: in vivo; conditions: equivalent dose 100 mg/kg
# mice = conditions: mouse, in vivo, 14 days
# Pharmacokinetics in dogs = type: in vivo, dog
# Experimental: (§1) For toxicokinetic studies, this method was validated over a concentration range of 10 to 1000 ng/mL for a 50 μL plasma sample. Radiometric methods were used to measure [^14C]
# in vitro [3] = conditions: rat, plasma
# rats [4] = experiment: Pulmonary function - rat, respiratory parameters; type: in vivo; conditions: oral, up to 300 mg/kg
# Text: (§5) For in vivo studies, the oral route of exposure was used. Rats given diazepam or frusemide served as positive controls in the locomotor activity and fluid/electrolyte excretion studies, respectively. […] Positive controls or animals given positive controls were not assessed concurrently in the remaining studies as these studies utilized well-characterized models to evaluate safety parameters.
# in vitro [5] = conditions: dog, plasma
# Rat Bone Marrow = experiment: Micronucleus assay in rat bone marrow; type: in vivo; conditions: 100, 300, 600 mg/kg/day
# Experimental: (§2) Study designs and dose selection were consistent with International Conference on Harmonization and Organization for Economic Cooperation and Development guidelines for mutagenicity and clastogenicity assays. All in vitro tests were conducted with and without exogenous metabolic activation using concentrations up to those limited by cytotoxicity or insolubility.
# [6] = target: T1, PDE6 enzyme (human retinal rod) (Homo sapiens, UniProt P16499+P35913); experiment: PDE6 enzyme (human retinal rod) inhibition; type: biochemical
# T1 construct: against human retinal cone and rod; from tissue; host or cells: human retina (rod)
# [7] = Tissue distribution study in rats, radio labeled compound; type: in vivo, rat; conditions: radio labeled Example 1
# [8] = target: PDE6 enzyme (human retinal cone) (Homo sapiens, UniProt P51160); experiment: PDE6 enzyme (human retinal cone) inhibition; type: biochemical
# [9] = Excretion of total radioactivity in rats; type: in vivo, rat
# Experimental: as §1
# CYP2D6 = target: T2, CYP2D6 (Homo sapiens, UniProt P10635); experiment: CYP inhibition in human liver microsomes; type: in vitro ADME
# T2 construct: was determined in human liver microsomes; from tissue; host or cells: human liver microsomes
# CYP1A2 = CYP1A2 (Homo sapiens, UniProt P05177); experiment: CYP inhibition in human liver microsomes; type: in vitro ADME
# [10] = system: Salmonella typhimurium (Strains TA-1535, TA-1537) and Escherichia coli (Strain WP2uvrA); experiment: Microbial reverse mutation (mutagenicity); type: cell-based; set-up: dose or concentration left out as unconfirmed; conditions: (±S9)
# Experimental: as §2
# dogs = experiment: Cardiovascular - conscious dogs, hemodynamic and ECG parameters; type: in vivo, dog
# Text: (§3) For in vivo studies, the oral route of exposure was used. Rats given diazepam or frusemide served as positive controls in the locomotor activity and fluid/electrolyte excretion studies, respectively. Dofetilide was used for assay validity or a positive control in the dofetilide and hERG assays, respectively. Positive controls or animals given positive controls were not assessed concurrently in the remaining studies as these studies utilized well-characterized models to evaluate safety parameters.
# These cardiovascular effects are consistent with cGMP elevation in vascular smooth muscle, resulting from inhibition of cGMP-specific PDE5.
# CYP2C9 = target: T3, CYP2C9 (Homo sapiens, UniProt P11712); experiment: CYP inhibition in human liver microsomes; type: in vitro ADME
# T3 construct: was determined in human liver microsomes; from tissue; host or cells: human liver microsomes
# [11] = Excretion of total radioactivity in dogs; type: in vivo, dog
# Experimental: as §1
# CYP2C19 = target: T4, CYP2C19 (Homo sapiens, UniProt P33261); experiment: CYP inhibition in human liver microsomes; type: in vitro ADME
# T4 construct: was determined in human liver microsomes; from tissue; host or cells: human liver microsomes
# [12] = system: major human cytochrome P450 enzymes; experiment: Inhibition of the major human cytochrome P450 enzymes; type: in vitro ADME
# Pharmacokinetics in rats = type: in vivo, rat
# Experimental: as §1
# in vitro [13] = conditions: rabbit, plasma
# CYP3A4 = CYP3A4 (Homo sapiens, UniProt P08684); experiment: CYP inhibition in human liver microsomes; type: in vitro ADME; conditions: probe midazolam, testosterone and felodipine
# in vitro [14] = conditions: human, plasma
# clinical = conditions: male, human, in vivo
# Experimental: (§4) Both single and multiple dose clinical studies were conducted with an oral solution or suspension ranging from single doses of 0.3 to 400 mg and multiple doses of 30 to 200 mg.
# as §1
# [15] = system: isolated rat aortic rings; experiment: Aortic ring relaxation (rat); conditions: read-out: Aortic ring vasorelaxation EC50
# rats [16] = experiment: Renal - rat, fluid and electrolyte excretion; type: in vivo; conditions: oral, 3, 30, 300 mg/kg
# Text: as §5
# rats [17] = conditions: rat, in vivo
# rat PDE5 = target: T5, rat PDE5 (Rattus norvegicus, UniProt O54735); experiment: PDE5 enzyme (rat platelet) inhibition; type: biochemical; conditions: rat platelet-derived enzyme
# T5 construct: rat and dog platelet-derived PDE5; from tissue; host or cells: rat platelets
# human PDE11 = human PDE11 (Homo sapiens, UniProt Q9HCR9); experiment: PDE11 enzyme (human) inhibition; type: biochemical
# healthy male volunteers = experiment: Human tolerability and safety, single and multiple dose clinical studies
# Experimental: as §4
# [18] = system: Human Peripheral Lymphocytes; experiment: In vitro cytogenetic assay, structural chromosome aberration; type: cell-based; conditions: 100, 350, 500 μg/mL (3 h − S9); 100, 200, 350 μg/mL (3 h + S9); 12.5, 50, 100 μg/mL (24 h − S9)
# Experimental: as §2
# [19] = system: spontaneously hypertensive rats (SHR); experiment: Antihypertensive efficacy in conscious SHR, oral dosing, radiotelemetry; type: in vivo, rat; conditions: for Effect on mean arterial pressure (MAP): 14-day dosing period
# dog Purkinje fiber = experiment: Dog Purkinje fiber assay; conditions: up to 10 μM (4.77 μg/mL)
# Text: as §3
# rats [20] = experiment: Central nervous system - rat, locomotor activity; type: in vivo; conditions: oral, up to 300 mg/kg
# Text: as §5
# [21] = target: T6, dog platelet-derived PDE5 (Canis lupus familiaris, UniProt O77746); experiment: PDE5 enzyme (dog platelet) inhibition; type: biochemical
# T6 construct: rat and dog platelet-derived PDE5; from tissue; host or cells: dog platelets
# [22] = system: Type II diabetic male patients; experiment: Microalbuminuria in Type II diabetic patients (FIG. 1); type: in vivo, human; conditions: 50 mg daily for 30 days (n=20), relative to baseline or placebo
# Chain of human PDE11 (Q9HCR9 whole entry): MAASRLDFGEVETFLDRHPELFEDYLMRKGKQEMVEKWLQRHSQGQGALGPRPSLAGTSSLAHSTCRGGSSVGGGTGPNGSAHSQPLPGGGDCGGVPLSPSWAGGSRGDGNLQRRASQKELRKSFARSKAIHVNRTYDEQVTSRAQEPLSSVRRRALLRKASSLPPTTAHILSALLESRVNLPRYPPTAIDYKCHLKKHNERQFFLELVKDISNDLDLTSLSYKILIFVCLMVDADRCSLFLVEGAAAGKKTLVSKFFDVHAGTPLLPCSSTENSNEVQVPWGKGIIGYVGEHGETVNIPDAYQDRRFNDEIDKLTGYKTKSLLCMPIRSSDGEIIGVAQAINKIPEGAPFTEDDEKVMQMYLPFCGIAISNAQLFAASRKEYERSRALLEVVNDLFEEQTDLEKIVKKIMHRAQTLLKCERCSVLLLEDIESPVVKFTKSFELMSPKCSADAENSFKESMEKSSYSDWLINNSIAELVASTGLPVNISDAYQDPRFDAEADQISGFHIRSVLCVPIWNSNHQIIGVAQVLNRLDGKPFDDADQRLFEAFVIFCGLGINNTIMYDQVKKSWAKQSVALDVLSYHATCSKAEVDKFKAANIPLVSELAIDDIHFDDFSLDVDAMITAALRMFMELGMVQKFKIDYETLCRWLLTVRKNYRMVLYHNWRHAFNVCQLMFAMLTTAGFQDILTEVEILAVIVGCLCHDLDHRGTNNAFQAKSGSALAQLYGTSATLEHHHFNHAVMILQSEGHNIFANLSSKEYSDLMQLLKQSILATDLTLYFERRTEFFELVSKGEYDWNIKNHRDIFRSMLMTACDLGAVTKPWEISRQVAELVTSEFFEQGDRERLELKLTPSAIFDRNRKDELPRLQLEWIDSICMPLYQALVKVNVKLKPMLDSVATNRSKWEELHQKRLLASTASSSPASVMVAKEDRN
# T4 sequence (P33261 whole entry): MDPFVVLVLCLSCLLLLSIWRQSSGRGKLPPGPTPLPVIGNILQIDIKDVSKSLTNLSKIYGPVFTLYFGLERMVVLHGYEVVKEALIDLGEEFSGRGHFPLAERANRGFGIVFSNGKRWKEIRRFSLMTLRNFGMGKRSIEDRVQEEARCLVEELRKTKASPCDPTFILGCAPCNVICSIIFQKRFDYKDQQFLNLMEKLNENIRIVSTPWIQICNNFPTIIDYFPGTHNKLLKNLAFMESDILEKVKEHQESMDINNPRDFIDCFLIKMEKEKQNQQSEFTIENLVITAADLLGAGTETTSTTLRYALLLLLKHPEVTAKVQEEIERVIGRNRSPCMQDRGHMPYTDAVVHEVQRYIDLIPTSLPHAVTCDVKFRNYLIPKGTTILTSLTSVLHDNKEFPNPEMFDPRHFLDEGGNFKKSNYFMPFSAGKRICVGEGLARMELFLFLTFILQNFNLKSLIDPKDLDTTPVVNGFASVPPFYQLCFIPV
# Chain of CYP3A4 (P08684 whole entry): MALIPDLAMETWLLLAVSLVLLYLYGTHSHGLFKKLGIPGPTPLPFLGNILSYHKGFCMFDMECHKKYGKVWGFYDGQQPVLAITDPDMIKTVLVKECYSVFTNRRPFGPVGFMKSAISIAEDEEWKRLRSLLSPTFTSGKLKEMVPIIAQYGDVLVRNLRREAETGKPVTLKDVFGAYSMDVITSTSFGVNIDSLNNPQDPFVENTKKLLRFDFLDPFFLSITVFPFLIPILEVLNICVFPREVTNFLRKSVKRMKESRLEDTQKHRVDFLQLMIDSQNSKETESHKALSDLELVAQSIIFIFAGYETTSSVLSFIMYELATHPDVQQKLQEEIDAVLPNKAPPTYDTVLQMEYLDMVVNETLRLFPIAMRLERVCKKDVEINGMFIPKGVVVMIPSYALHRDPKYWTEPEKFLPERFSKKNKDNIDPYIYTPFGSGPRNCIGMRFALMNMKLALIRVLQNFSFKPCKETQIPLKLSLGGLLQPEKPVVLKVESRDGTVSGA
# T2 sequence (P10635 whole entry): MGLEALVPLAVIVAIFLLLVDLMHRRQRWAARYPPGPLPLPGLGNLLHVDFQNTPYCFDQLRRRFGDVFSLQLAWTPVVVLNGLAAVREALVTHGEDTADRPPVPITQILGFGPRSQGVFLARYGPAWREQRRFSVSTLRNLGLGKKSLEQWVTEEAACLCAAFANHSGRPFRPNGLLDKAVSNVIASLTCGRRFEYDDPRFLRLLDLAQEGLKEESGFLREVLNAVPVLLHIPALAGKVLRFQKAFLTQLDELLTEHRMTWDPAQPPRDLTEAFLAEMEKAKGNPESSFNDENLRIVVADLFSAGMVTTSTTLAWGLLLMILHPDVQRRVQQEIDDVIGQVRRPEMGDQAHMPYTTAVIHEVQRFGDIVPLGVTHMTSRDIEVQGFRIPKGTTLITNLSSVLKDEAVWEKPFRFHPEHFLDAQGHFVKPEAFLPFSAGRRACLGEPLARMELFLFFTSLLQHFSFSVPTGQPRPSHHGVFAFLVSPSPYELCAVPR
# Chain of PDE6 enzyme (human retinal cone) (P51160 whole entry): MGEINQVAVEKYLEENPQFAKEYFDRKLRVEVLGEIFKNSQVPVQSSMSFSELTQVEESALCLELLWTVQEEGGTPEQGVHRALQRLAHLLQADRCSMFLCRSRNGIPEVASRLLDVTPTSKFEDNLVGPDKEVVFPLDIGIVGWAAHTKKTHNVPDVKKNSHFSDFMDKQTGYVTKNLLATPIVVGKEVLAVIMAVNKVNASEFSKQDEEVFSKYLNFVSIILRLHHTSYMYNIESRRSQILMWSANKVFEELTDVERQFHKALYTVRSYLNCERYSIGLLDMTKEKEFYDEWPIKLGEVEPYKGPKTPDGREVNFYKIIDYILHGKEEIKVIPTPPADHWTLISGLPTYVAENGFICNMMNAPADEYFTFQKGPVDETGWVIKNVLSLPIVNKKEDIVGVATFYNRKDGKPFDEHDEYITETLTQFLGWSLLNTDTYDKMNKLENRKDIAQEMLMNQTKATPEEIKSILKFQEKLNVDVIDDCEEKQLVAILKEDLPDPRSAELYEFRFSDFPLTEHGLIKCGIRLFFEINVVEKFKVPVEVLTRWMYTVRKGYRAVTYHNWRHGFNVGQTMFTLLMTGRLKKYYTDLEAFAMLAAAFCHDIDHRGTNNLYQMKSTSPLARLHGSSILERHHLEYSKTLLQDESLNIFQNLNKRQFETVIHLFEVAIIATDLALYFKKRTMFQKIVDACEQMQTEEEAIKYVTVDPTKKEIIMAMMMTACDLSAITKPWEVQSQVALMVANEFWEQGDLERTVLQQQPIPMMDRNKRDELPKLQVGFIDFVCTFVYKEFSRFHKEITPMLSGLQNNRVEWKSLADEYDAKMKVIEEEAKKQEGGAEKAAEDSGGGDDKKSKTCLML
# T3 sequence (P11712 whole entry): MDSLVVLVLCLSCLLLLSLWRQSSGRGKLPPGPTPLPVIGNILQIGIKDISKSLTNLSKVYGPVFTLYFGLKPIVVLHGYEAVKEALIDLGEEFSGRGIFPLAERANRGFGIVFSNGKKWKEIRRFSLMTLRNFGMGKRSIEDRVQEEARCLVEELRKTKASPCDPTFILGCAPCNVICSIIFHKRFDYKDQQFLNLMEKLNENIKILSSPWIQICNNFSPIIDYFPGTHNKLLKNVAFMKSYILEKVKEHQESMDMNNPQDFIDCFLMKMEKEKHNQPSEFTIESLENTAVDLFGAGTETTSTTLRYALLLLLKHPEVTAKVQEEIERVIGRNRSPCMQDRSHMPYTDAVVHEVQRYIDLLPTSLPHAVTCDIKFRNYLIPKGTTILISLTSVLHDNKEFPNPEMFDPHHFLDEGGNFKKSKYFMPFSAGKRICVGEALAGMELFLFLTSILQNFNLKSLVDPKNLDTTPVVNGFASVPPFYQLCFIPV
# Chain of CYP1A2 (P05177 whole entry): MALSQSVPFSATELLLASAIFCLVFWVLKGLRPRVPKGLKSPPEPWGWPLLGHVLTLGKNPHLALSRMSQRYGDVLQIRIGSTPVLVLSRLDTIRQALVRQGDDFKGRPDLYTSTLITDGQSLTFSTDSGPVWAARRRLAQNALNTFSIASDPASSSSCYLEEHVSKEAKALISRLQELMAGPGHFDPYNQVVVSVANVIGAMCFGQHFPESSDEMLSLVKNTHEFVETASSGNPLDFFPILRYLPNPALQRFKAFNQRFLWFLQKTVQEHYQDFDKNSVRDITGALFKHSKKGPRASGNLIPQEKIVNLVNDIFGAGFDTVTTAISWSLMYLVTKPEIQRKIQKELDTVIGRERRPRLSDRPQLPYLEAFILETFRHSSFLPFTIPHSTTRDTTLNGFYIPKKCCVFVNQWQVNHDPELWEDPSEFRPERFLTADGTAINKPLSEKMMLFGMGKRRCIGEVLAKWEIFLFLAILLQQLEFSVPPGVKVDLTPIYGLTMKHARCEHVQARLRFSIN
compound,measurement,setting,value
"CCOCCn1nc(C(=O)NS(C)(=O)=O)c2nc(N(C)CC)nc(Nc3cc(C)ccn3)c21 [Example 1 (polymorph form C), 1-(2-ethoxyethyl)-5-(ethyl(methyl)amino)-7-((4-methylpyridin-2-yl)amino)-N-(methylsulfonyl)-1H-pyrazolo[4,3-d]pyrimidine-3-carboxamide]","Systemic exposure, polymorph form C versus form B",[1],no differences in systemic exposure
same,"Systemic exposure, polymorph form C versus form B",[2],no differences in systemic exposure
"CCOCCn1nc(C(=O)NS(C)(=O)=O)c2nc(N(C)CC)nc(Nc3cc(C)ccn3)c21 [Example 1, 1-(2-ethoxyethyl)-5-(ethyl(methyl)amino)-7-((4-methylpyridin-2-yl)amino)-N-(methylsulfonyl)-1H-pyrazolo[4,3-d]pyrimidine-3-carboxamide]",Maximum non-lethal dose,mice,2000 mg/kg
same,Steady-state distribution volume,Pharmacokinetics in dogs; dog,lower than total body water
same,bioavailability,"Pharmacokinetics in dogs; dog, plasma, po, dogs, single dose, read-out: Absolute oral bioavailability",77%
same,Cmax,"Pharmacokinetics in dogs; dog, plasma, dogs, 5 mg/kg oral",12800 ng/mL
same,Half-life (in words),Pharmacokinetics in dogs; dogs,long half-life values
same,Oral bioavailability (in words),Pharmacokinetics in dogs; dogs,high
same,Dog Cmax as multiple of human Cmax,Pharmacokinetics in dogs; dogs 5 mg/kg versus humans 30 mg dose,~8 times
same,Plasma clearance,"Pharmacokinetics in dogs; dogs, intravenous administration",low clearance; also recorded: lower that the liver-blood flow
same,fraction unbound,in vitro [3],0.007
same,Effects on pulmonary function,rats [4],no adverse effects
same,fraction unbound,in vitro [5],0.007
same,Micronucleus assay in rat bone marrow result,Rat Bone Marrow,Negative
same,IC50,[6],63.6 nM
same,Tissue distribution,[7],systemic distribution was generally in proportion to tissue-blood flow
same,IC50,[8],28.9 nM
same,Administered dose (total radioactivity) eliminated in feces,[9],greater than 80%
same,Time within which the majority of the radioactivity was recovered,[9],≤ 48 h
same,Total radioactivity recovered,[9],greater than 92%
same,IC50,CYP2D6,> 30000 nM
same,IC50,CYP1A2,> 30000 nM
same,Mutagenicity result,[10],Negative
same,Effects on ECG parameters,dogs; dogs,not associated with any relevant effects
same,Effect on blood pressure and left ventricular end-diastolic pressure,"dogs; dogs, 0.5, 1.5, and 5 mg/kg","small, but significant reductions"
same,IC50,CYP2C9,> 30000 nM
same,Administered dose (total radioactivity) eliminated in feces,[11],greater than 80%
same,Time within which the majority of the radioactivity was recovered,[11],≤ 48 h
same,Total radioactivity recovered,[11],greater than 92%
same,IC50,CYP2C19,> 30000 nM
same,Inhibition of the major human cytochrome P450 enzymes,[12],no significant inhibition
same,Steady-state distribution volume,Pharmacokinetics in rats; rat,lower than total body water
same,bioavailability,"Pharmacokinetics in rats; rat, plasma, po, rats, single dose, read-out: Absolute oral bioavailability",82%
same,Half-life (in words),Pharmacokinetics in rats; rats,long half-life values
same,Oral bioavailability (in words),Pharmacokinetics in rats; rats,high
same,Plasma clearance,"Pharmacokinetics in rats; rats, intravenous administration",low clearance; also recorded: lower that the liver-blood flow
same,fraction unbound,in vitro [13],0.012
same,IC50,CYP3A4,> 30000 nM
same,fraction unbound,in vitro [14],0.007
same,Cmax,clinical; 30 mg,1570 to 1630 ng/mL
same,half-life,clinical; Human Half-life,11.9 to 15.7 h
same,half-life,clinical; Terminal half-life,11.9 to 15.7 h
same,EC50,[15],3.1 nM
same,Effect on urine volume and electrolyte excretion,rats [16],dose-related decrease
same,Single dose toxicity findings,rats [17],No toxicity was observed
same,Maximum non-lethal dose,rats [17]; 14 days,2000 mg/kg
same,IC50,rat PDE5,0.93 nM
same,IC50,human PDE11,26.3 nM
same,"Changes in vital signs, ECGs, laboratory safety test results, or physical examination results","healthy male volunteers; healthy male volunteers, any dose",No significant changes
same,Tolerability of multiple doses,"healthy male volunteers; human, in vivo",well tolerated
same,Tolerability of single doses,"healthy male volunteers; human, in vivo, po",well tolerated
same,Effects on ECG parameters,"healthy male volunteers; humans, single and multiple doses",No clinically-relevant effects
same,"Clastogenicity in vitro, structural chromosome aberration result",[18],Negative
same,Effect on mean arterial pressure (MAP),[19],"significant, sustained reduction in MAP"
same,Effect on MAP in combination,[19]; combined with an ACE inhibitor,greater MAP lowering effects than the ACE inhibitor alone
same,"Free plasma concentration giving significant MAP reduction, as multiple of rat PDE5 IC50",[19]; daily oral dosing,approximately 7 fold
same,ECmax (maximally efficacious concentration),"[19]; oral dosing, unbound plasma concentration",ECmax = 6.5 nM
same,Effects in dog Purkinje fiber assay,dog Purkinje fiber,No relevant effects
same,Effects on locomotor activity,rats [20],"minor, nondose-related effects consisting of decreased rearing and center rearing"
same,IC50,[21],0.65 nM
"CCCc1nn(C)c2c(=O)[nH]c(-c3cc(S(=O)(=O)N4CCN(C)CC4)ccc3OCC)nc12 [Sildenafil, sildenafil]",Microalbuminuria / albuminuria,[22],reduces albuminuria
same,Microalbuminuria / albuminuria,[22]; listed as sildenafil citrate,significantly decreased
same,half-life,clinical; Human Half-life,3.7 h
"CCOC(=O)[C@H](CCc1ccccc1)N[C@@H](C)C(=O)N1CCC[C@H]1C(=O)O [enalapril, reference compound]",Effect on mean arterial pressure (MAP),[19],"significant, sustained reduction in MAP"
